Melting point and IC50 data for 22 compounds are collected here from patent publication US6982260B1, “Quinazolines and their use for inhibiting cyclin-dependent kinase enzymes” (Warner-Lambert Company, priority 1999, dated 2006).

One data set has as its target cdc2/cyclinB (Homo sapiens, UniProt P06493). Description: cdc2/cyclinB kinase assay (Table 1, CdkB). The data set is classed as biochemical. Conditions: 32P incorporation into retinoblastoma, 25° C., 15 minutes. The protocol: (§1) All components except the ATP were added to the wells, and the plate was placed on a plate mixer for 2 minutes. The reaction was begun by addition of [^32P]ATP, and the plate was incubated at 25° C. for 15 minutes. The reaction was terminated by addition of 0.1 mL of 20% TCA. The plate was kept at 4° C. for at least 1 hour to allow the substrate to precipitate. The wells were then washed five times with 0.2 mL of 10% TCA and ^32P incorporation determined with a beta plate counter (Wallac Inc., Gaithersburg, Md.).

For another data set, the target named is cdk2/A (Homo sapiens, UniProt P24941). Put plainly: cdk2/A kinase assay. The settings on record: 32P incorporation into retinoblastoma, 25° C., 15 minutes; read-out: Cdk2A IC50. The data set is classed as biochemical. The protocol: as §1
For the next data set, the target named is cdk2/cyclinE (Homo sapiens, UniProt P24941). Put plainly: cdk2/cyclinE kinase assay. Conditions: 32P incorporation into retinoblastoma, 25° C., 15 minutes; read-out: Cdk2E IC50. Format: biochemical. The protocol:
as §1

The target of another data set is cdk4/D (Homo sapiens, UniProt P11802). Put plainly: Cyclin-Dependent Kinase 4 (cdk4) Assay. The data set is classed as biochemical. The protocol: As noted above, the compounds of this invention are potent inhibitors of cyclin-dependent kinases, and accordingly, are useful in treating and preventing neurodegenerative disorders, atherosclerosis, and other cell proliferative disorders like cancer. […] A typical assay, for instance, measures inhibitory activity against the cyclin D dependent kinase 4 enzyme (cdk4/D). […] The cdk4 assay was carried out as follows.
Chain of cdk4/D (P11802 whole entry, species assumed): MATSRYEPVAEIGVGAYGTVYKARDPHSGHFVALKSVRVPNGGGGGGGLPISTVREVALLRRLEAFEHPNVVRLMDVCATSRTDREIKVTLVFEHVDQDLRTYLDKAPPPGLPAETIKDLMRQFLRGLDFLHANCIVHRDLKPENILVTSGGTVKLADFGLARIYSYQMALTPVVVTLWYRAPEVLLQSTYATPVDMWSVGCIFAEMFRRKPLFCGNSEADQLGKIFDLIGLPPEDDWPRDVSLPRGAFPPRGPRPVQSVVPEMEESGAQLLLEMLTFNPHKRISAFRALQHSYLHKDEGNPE
Chain of cdk4/D (P24385 whole entry partner, species assumed): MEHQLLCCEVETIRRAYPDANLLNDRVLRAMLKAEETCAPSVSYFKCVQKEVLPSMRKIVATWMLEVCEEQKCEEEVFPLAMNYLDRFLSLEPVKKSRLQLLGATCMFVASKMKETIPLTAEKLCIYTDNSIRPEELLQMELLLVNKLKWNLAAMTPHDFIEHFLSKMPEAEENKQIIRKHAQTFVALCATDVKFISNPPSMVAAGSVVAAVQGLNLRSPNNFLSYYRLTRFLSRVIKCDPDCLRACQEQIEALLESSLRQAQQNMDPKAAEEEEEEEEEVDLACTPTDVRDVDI
Cyclin-Dependent Kinase 4 (cdk4) Assay
Enzyme assays for IC50 determinations (Table 1 above) and kinetic evaluation were performed in 96 well filter plates (Millipore MADVN6550). The total volume was 0.1 mL containing a final concentration of 20 mM TRIS (tris[hydroxymethyl]aminomethane), at pH 7.4, 50 mM NaCl, 1 mM dithiothreitol, 10 mM MgCl2, 25 μM ATP containing 0.25 μCi of [^32P]ATP, 20 ng of cdk4, 1 μg of retinoblastoma, and appropriate dilutions of a compound of the present invention. All components except the ATP were added to the wells, and the plate was placed on a plate mixer for 2 minutes. The reaction was started by adding [^32P]ATP and the plate was incubated at 25° C. for 15 minutes. The reaction was terminated by addition of 0.1 mL of 20% trichloroacetic acid (TCA). The plate was kept at 4° C. for at least 1 hour to allow the substrate to precipitate. The wells were then washed five times with 0.2 mL of 10% TCA and ^32P incorporation was determined with a beta plate counter (Wallac Inc., Gaithersburg, Md.).

[1] abbreviates: 25 μM ATP, retinoblastoma substrate, 25° C., 15 minutes, read-out: Cdk4 IC50.

Like-named read-outs stand apart in the source and are kept apart here.

Chain of cdc2/cyclinB (P06493 whole entry, species assumed): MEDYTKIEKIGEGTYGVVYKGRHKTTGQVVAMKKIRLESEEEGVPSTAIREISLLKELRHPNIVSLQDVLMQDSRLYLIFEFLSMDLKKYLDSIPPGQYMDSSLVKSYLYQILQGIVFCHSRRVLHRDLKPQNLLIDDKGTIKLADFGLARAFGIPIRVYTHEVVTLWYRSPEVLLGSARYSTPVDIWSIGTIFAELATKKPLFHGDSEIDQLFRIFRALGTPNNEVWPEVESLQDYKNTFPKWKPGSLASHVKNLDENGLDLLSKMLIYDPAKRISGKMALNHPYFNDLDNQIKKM
Chain of cdc2/cyclinB (P14635 whole entry partner, species assumed): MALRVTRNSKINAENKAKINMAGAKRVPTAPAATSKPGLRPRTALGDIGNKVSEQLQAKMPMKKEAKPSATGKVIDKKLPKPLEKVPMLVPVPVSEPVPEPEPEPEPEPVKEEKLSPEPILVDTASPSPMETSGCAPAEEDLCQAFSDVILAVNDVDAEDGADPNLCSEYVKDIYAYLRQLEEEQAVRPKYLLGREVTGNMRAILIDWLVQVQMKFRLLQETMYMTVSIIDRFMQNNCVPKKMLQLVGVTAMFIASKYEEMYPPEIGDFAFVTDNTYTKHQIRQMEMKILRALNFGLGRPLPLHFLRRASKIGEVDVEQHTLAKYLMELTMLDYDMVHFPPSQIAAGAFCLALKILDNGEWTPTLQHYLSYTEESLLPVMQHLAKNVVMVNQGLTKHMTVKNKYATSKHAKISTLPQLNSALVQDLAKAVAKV

As usually defined, the melting point is the temperature of the solid-liquid transition. Compound `COc1ccc2cnc(Nc3ccccc3)nc2c1C1CCCC1` [Example 17, (8-Cyclopentyl-7-methoxy-quinazolin-2-yl)-phenyl-amine] yielded a melting point of 187 to 188 °C.
In general, IC50 refers to the concentration at which inhibition is half-maximal. The compound `COc1ccc2cnc(Nc3ccccc3)nc2c1C(C)C` [Example 19, (8-Isopropyl-7-methoxy-quinazolin-2-yl)-phenyl-amine] displayed a melting point of 172 to 173 °C. Further, it took 1040 nM to reach half-maximal inhibition on cdc2/cyclinB (IC50). The half-maximal inhibitory concentration (IC50) at cdk2/A came out at 253 nM. In addition, on cdk2/cyclinE, the IC50 worked out at 1080 nM. Also, on cdk4/D, the IC50 was determined as 125 nM.
For `COc1ccc2cnc(Nc3ccc(N4CCN(C(C)=O)CC4)cc3)nc2c1C1CCCC1` [Example 20, 1-{4-[4-(8-Cyclopentyl-7-methoxy-quinazolin-2-ylamino)-phenyl]-piperazin-1-yl}-ethanone], in that order: 247 to 249 °C, > 5000 nM, 50 nM, 265 nM and 2 nM.
In turn, `COc1ccc2cnc(Nc3ccc(N4CCCCC4)cc3)nc2c1C(C)C` [Example 21, (8-Isopropyl-7-methoxy-quinazolin-2-yl)-(4-piperidin-1-yl-phenyl)-amine] registered a melting point of 166 to 167 °C. The IC50 against cdc2/cyclinB is > 5000 nM. Besides, the IC50 at cdk2/A came out at 410 nM. Also, at cdk2/cyclinE, the IC50 worked out at 3100 nM. Half-maximal inhibition against cdk4/D (IC50) was put at 52 nM.
Compound `COc1ccc2cnc(Nc3ccc(N4CCCC4)cc3)nc2c1C(C)C` [Example 22, (8-Isopropyl-7-methoxy-quinazolin-2-yl)-(4-pyrrolidin-1-yl-phenyl)-amine] yielded a melting point of 188 to 190 °C. Moreover, the IC50 at cdc2/cyclinB was > 5000 nM. In addition, at cdk2/A, the IC50 is 1600 nM. Also, at cdk2/cyclinE, the IC50 was > 5000 nM. Further, half-maximal inhibition against cdk4/D (IC50) was put at 560 nM.
As for `COc1ccc2cnc(Nc3ccc(N4CCCCC4)cc3)nc2c1C1CCCC1` [Example 23, (8-Cyclopentyl-7-methoxy-quinazolin-2-yl)-(4-piperidin-1-yl-phenyl)-amine], the melting point fell in the range of 212 to 214 °C. Moreover, the IC50 against cdc2/cyclinB was > 5000 nM. At cdk2/A, the IC50 stood at 384 nM. For the same compound, at cdk2/cyclinE, the half-maximal inhibitory concentration (IC50) is > 5000 nM. Moreover, at cdk4/D, the IC50 turned out to be 11 nM.
`COc1ccc2cnc(Nc3ccc(N4CCCC4)cc3)nc2c1C1CCCC1` [Example 24, (8-Cyclopentyl-7-methoxy-quinazolin-2-yl)-(4-pyrrolidin-1-yl-phenyl)-amine] showed a melting point of 240 to 242 °C. Also, the IC50 on cdc2/cyclinB was > 5000 nM. This compound also registered an IC50 at cdk4/D of 1750 nM.
For the compound `COc1ccc2cnc(Nc3ccc(N4CCN(C(=O)OC(C)(C)C)CC4)cc3)nc2c1C(C)C` [Example 25, 4-[4-(8-Isopropyl-7-methoxy-quinazolin-2-ylamino)-phenyl]-piperazine-1-carboxylic Acid Tert-butyl Ester], the melting point was 173 to 175 °C. On cdc2/cyclinB, this compound had an IC50 of 10200 nM. Also, the IC50 on cdk2/A was determined as 1620 nM. Also, the IC50 at cdk2/cyclinE came to 10000 nM. In addition, the IC50 on cdk4/D (setting [1]) is 63 nM.
The compound `COc1ccc2cnc(Nc3ccc(N4CCN(C(=O)OC(C)(C)C)CC4)cc3)nc2c1C1CCCC1` [Example 26, 4-[4-(8-Cyclopentyl-7-methoxy-quinazolin-2-ylamino)-phenyl]-piperazine-1-carboxylic Acid Tert-butyl Ester] yielded a melting point of 183 to 184 °C. The compound also registered an IC50 at cdc2/cyclinB of 4200 nM. Moreover, the IC50 at cdk2/A turned out to be 646 nM. Also, the IC50 on cdk4/D (setting [1]) worked out at 51 nM.
With `COc1ccc2cnc(Nc3ccc(N4CCNCC4)cc3)nc2c1C1CCCC1` [Example 27, (8-Cyclopentyl-7-methoxy-quinazolin-2-yl)-(4-piperazin-1-yl-phenyl)-amine], the 50% inhibitory concentration (IC50) came out at 132 nM on cdc2/cyclinB, 28 nM at cdk2/A, 250 nM at cdk2/cyclinE and 1 nM on cdk4/D (setting [1]).
In turn, `CC(C)c1c(O)ccc2cnc(Nc3ccccc3)nc12` [Example 29, 8-Isopropyl-2-phenylamino-quinazolin-7-ol] registered a melting point of 103 to 104 °C. Also, the IC50 against cdc2/cyclinB worked out at 813 nM. Also, the IC50 at cdk2/A was determined as 250 nM. Also, the IC50 at cdk2/cyclinE came out at 550 nM. For the same compound, at cdk4/D, the IC50 came to 325 nM.
Take `COc1ccc2cnc(Nc3ccc(N4CCN(C(C)=O)CC4)cc3)nc2c1C(C)C` [Example 33, 1-{4-[4-(8-Isopropyl-7-methoxy-quinazolin-2-ylamino)-phenyl]-piperazin-1-yl}-ethanone]: the melting point is 197 to 198 °C. Further, the IC50 at cdk2/cyclinE was determined as 900 nM. The compound further displayed an IC50 against cdk4/D of 25 nM.
In the case of `COc1ccc2cnc(Nc3ccc(N4CCNCC4)cc3)nc2c1C(C)C` [Example 34, (8-Isopropyl-7-methoxy-quinazolin-2-yl)-(4-piperazin-1-yl-phenyl)-amine], the half-maximal inhibitory concentration (IC50) on cdc2/cyclinB worked out at 506 nM; at cdk2/A, 185 nM; on cdk2/cyclinE, 1200 nM; at cdk4/D, 16 nM.
On to `COc1ccc2cnc(Nc3ccc(N4CCN(C(=O)CN)CC4)cc3)nc2c1C(C)C` [Example 35, 2-Amino-1-{4-[4-(8-Isopropyl-7-methoxy-quinazolin-2-ylamino)-phenyl]-piperazin-1-yl}-ethanone], for which the melting point fell in the range of 183 to 185 °C. The same compound came in with a concentration for half-maximal inhibition (IC50) on cdc2/cyclinB of 800 nM. Moreover, the IC50 at cdk2/A stood at 191 nM. Besides, the IC50 on cdk2/cyclinE came to 1100 nM. Also, the IC50 on cdk4/D was 10 nM.
For `COc1ccc2cnc(Nc3ccc(N4CCC(N)C4)cc3)nc2c1C(C)C` (stereo not drawn) [Example 37, [4-(3-Amino-pyrrolidin-1-yl)-phenyl]-(8-isopropyl-7-methoxy-quinazolin-2-yl)-amine], the IC50 on cdc2/cyclinB turned out to be 1300 nM; on cdk2/A, 296 nM; on cdk2/cyclinE, 2550 nM; against cdk4/D it was 11 nM.
As for `COc1ccc2cnc(Nc3ccc(N4CCOCC4)c(F)c3)nc2c1C(C)C` [Example 38, (3-Fluoro-4-morpholin-4-yl-phenyl)-(8-isopropyl-7-methoxy-quinazolin-2-yl)-amine], the melting point is 202 to 203 °C. The compound further came in with an IC50 at cdc2/cyclinB of 1230 nM. For the same compound, at cdk2/A, the IC50 came out at 451 nM. The IC50 at cdk2/cyclinE stood at 2750 nM.
Turning to `COc1ccc2cnc(Nc3ccc(N4CCOCC4)cc3)nc2c1C(C)C` [Example 39, (8-Isopropyl-7-methoxy-quinazolin-2-yl)-(4-morpholin-4-yl-phenyl)-amine], the concentration for half-maximal inhibition (IC50) is 1970 nM at cdc2/cyclinB, 665 nM on cdk2/A, 4400 nM on cdk2/cyclinE and 52 nM against cdk4/D.
`COc1ccc2cnc(Nc3ccc(N4CCN(C(=O)CN)CC4)cc3)nc2c1C1CCCC1` [Example 40, 2-Amino-1-{4-[4-(8-cyclopentyl-7-methoxy-quinazolin-2-ylamino)-phenyl]-piperazin-1-yl}-ethanone] yielded a melting point of 202 °C. Also, the IC50 at cdc2/cyclinB amounted to 270 nM. For the same compound, the IC50 on cdk2/A is 95 nM. Further, at cdk2/cyclinE, the half-maximal inhibitory concentration (IC50) came out at 450 nM. The same compound registered an IC50 at cdk4/D of 2 nM.
Take `COc1ccc2cnc(Nc3ccc(N4CCN(C(=O)C(N)CC(C)C)CC4)cc3)nc2c1C1CCCC1` (stereo not drawn) [Example 42, 2-Amino-1-{4-[4-(8-cyclopentyl-7-methoxy-quinazolin-2-ylamino)-phenyl]-piperazin-1-yl}-4-methyl-pentan-1-one]: the melting point fell in the range of 130 to 132 °C. At cdc2/cyclinB, this compound showed an IC50 of 333 nM. At cdk2/A, the IC50 was found to be 103 nM. For the same compound, the IC50 at cdk2/cyclinE worked out at 500 nM.
Regarding `COc1ccc2cnc(Nc3ccc(N4CCCCC4)c(F)c3)nc2c1C1CCCC1` [Example 49, (8-Cyclopentyl-7-methoxy-quinazolin-2-yl)-(3-Fluoro-4-piperidin-1-yl-phenyl)-amine], the melting point was 200 to 201 °C. For the same compound, the IC50 on cdc2/cyclinB is > 5000 nM. Further, the IC50 on cdk2/cyclinE was 8000 nM. Further, on cdk4/D (setting [1]), the IC50 worked out at 85 nM.
Turning to “(8-Isopropyl-7-methoxy-quinazolin-2-yl)-(4-piperidin-1-yl-phenyl)-amine [Example 47]”, the IC50 was found to be 1070 nM against cdc2/cyclinB, 264 nM at cdk2/A, 4100 nM on cdk2/cyclinE and 75 nM on cdk4/D (setting [1]).
As for “(8-Isopropyl-7-methoxy-quinazolin-2-yl)-(4′-methoxy-biphenyl-4-yl)-amine [Example 36]”, the half-inhibitory concentration (IC50) on cdk2/cyclinE is > 5000 nM; at cdk4/D (setting [1]), 225 nM.
